Peptide text beside a SMILES is read from it.
Key:
[1] = Liposome leakage assay (carboxyfluorescein release); details: DOPC/sterol 60/40 mol/mol, 10 μM lipid in 10 mM Tris, 5 mM glucose, pH 7.4, 37°C, CF fluorescence at 520 nm, at least duplicate (Figure 4)
Source text: The liposomes investigated were zwitterionic DOPC/cholesterol (60/40 mol/mol) or DOPC/ergosterol (60/40 mol/mol). DOPC (1,2-Dioleoyl-sn-Glycero-3-Phosphatidylcholine) was from Avanti Polar Lipids (Alabaster, USA) and of >99% purity, while ergosterol and cholesterol (>99% purity) were from Sigma-Aldrich (St. Louis, USA). Due to the long, symmetric, and unsaturated acyl chains of DOPC, several methodological advantages are reached. In particular, membrane cohesion is good, which facilitates very stable unilamellar liposomes, allowing detailed values on leakage to be obtained. The lipid mixtures were dissolved in chloroform, after which solvent was removed by evaporation under vacuum overnight. Subsequently, 10 mM Tris buffer, pH 7.4, was added together with 0.1 M carboxyfluorescein (CF) (Sigma, St. Louis, USA). After hydration, the lipid mixture was subjected to eight freeze-thaw cycles consisting of freezing in liquid nitrogen and heated to 60°C. Unilamellar liposomes of about Ø140 nm were generated by multiple extrusions through polycarbonate filters (pore size 100 nm) mounted in a LipoFast miniextruder (Avestin, Ottawa, Canada) at 22°C. […] CF release from the liposomes was determined by monitoring the emitted fluorescence at 520 nm from a liposome dispersion (10 μM lipid in 10 mM Tris, 5 mM glucose, pH 7.4). […]

M. furfur ATCC 44342 = type: cell-based, Malassezia furfur; details: for MIC (concentration yielding at least 95% inhibition of fungal growth): ATCC 44342, 24 h
Experimental: Malassezia furfur ATCC 44342 (CCUG 24230) was obtained from the Department of Bacteriology at Skåne University Hospital. The antifungal activity was tested in an assay described by Lopez-[…] et al., but with some minor modifications. Cells were cultured for 2 days at 37 °C in 10 mL medium containing 4% Bacto Malt Extract (Becton, Dickinson and Company, Md, USA), 1% glucose (VWR international), 1% Tween 80 (Sigma-Aldrich, St. Louis, Mo, USA) and 0.6% Bacto Peptone (Becton, Dickinson and Company, Md, USA). Cells were then washed in 1 mM sodium phosphate buffer, pH 7.4. M. furfur cells were grown in sterile 96-well microtiter plates (Costar, Corning Incorporated, Corning, USA) in a total volume of 100 μL, containing 60 μL of 1 mM sodium phosphate buffer, pH 7.4, 20 μL of culture medium, 10 μL of a 10x stock solution of the synthetic peptides, and a 10x stock solution of the fungal cell suspension, resulting in a final concentration of 1-2 × 10^5 cells/mL. Chloramphenicol was added to each well (16 μg/ml) to avoid contamination. The cells were incubated at 30°C for 24 h. To quantify the fungicidal activity, serial dilutions of the incubation mixture were plated onto agar plates and incubated 72 h at 37°C, and the number of cfu thereafter was determined by counting visible colonies. The minimal inhibitory concentration (MIC) was defined as the concentration which yielded at least 95% inhibition of fungal growth.

C. albicans ATCC 90028 = experiment: Radial diffusion assay (RDA), low salt; type: cell-based, Candida albicans; details: 6 μL at 100 μM; for Antifungal activity in RDA: low salt conditions (Figure 2(c))
Experimental: (§1) Radial diffusion assay (RDA) was performed as described by Lehrer et al. with some minor modifications. Candida was grown for 16 h at 28°C in 10 mL YPD to obtain yeast form organisms. The culture was centrifuged at 2000 ×g for 10 min then washed three times with 10 mM Tris, pH 7.4. A volume containing 1 × 10^5 cfu was added to 5 mL of previously autoclaved, 42°C, underlay agarose gel that contained 1.5 mg of Tryptic Soy Broth (TSB) base, 50 mg of low-electroendosmosistype (Low-EEO) agarose type I (A-6013-25G) (Sigma-Aldrich Inc, St. Louis, Mo, USA), and 1 μL of Tween 20 (0.02% w/v) (Sigma Chemical Co.) dissolved in 10 mM Tris, pH 7.4. The fungi were directly dispensed into the agar and mixed with a vortex mixer for 10 seconds and then quickly poured out into a petri dish, 85 mm in diameter. Wells, 4 mm in diameter, were punched, and each well was then filled up with 6 μL of test sample. After incubation at 35–37°C for 3 h, 5 mL of overlay agarose gel, consisting of 300 mg TSB, 50 mg Low-EEO agarose dissolved in distilled sterilized water, was poured out on top of the underlay gel. The clear zone surrounding the wells, indicating antifungal activity, was measured after 18–24 h of incubation at 28°C. HMWK degradation products were tested for RDA inhibitory effects (Figure 1(b)). Human leukocyte (neutrophil) elastase (HLE) and freeze-thaw-disrupted polymorphonuclear neutrophils (PMNs) at equivalent concentrations as used in the HMWK degradation were incubated at 37°C for 60 minutes and added as controls (Figure 1(b)).

[2] = tested on: C. parapsilosis ATCC 90018; experiment: Radial diffusion assay (RDA); type: cell-based, Candida parapsilosis; details: 6 μl of peptide per well (Figure 2(b))
Experimental: as §1, with “Human leukocyte (neutrophil) elastase (HLE) and freeze-thaw-disrupted polymorphonuclear neutrophils (PMNs) at equivalent concentrations as used in the HMWK degradation were incubated at 37°C for 60 minutes and added as controls (Figure 1(b)).” left out

[3] = tested on: C. parapsilosis ATCC 90018; type: cell-based, Candida parapsilosis
Experimental: C. albicans ATCC 90028 and C. parapsilosis ATCC 90018 were obtained from the Department of Bacteriology Lund at Skåne University Hospital. Cells were precultured overnight on Sabouraud-dextrose-agar (Difco, Detroit, Mich) at 28°C, inoculated in 10 mL yeast extract-peptone-dextrose (YPD) broth (Sigma-Aldrich, St. Louis, Mo USA) at 28°C, and grown to mid-logarithmic phase. The cells were washed three times and diluted in 10 mM Tris, pH 7.4. Fifty μL of a suspension containing 1 × 10^6 fungal colony-forming units (cfu)/mL was incubated at 28°C for two hours with rD5, HKH20 at concentrations ranging from 0.3 μM to 60 μM, or the peptides HKH20, GKH17, GKH17WWW, and GKH17WWWWW at a concentration of 30 μM. To quantify the fungicidal activity, serial dilutions of the incubation mixture were plated onto Sabouraud-dextrose-agar plates (Difco, Detroit, Mich) and incubated for 48 h at 28°C, and the number of cfu were thereafter determined by counting visible colonies. Activity of 30 μM HKH20, GKH17, GKH17WWW, and GKH17WWWWW peptides against Candida was also tested in physiological salt conditions (0.15 M NaCl in 10 mM Tris, pH 7.4) in presence of 20% as well as 50% human plasma, and 50% human serum (in 0.15 M NaCl, 10 mM Tris, pH 7.4) (Figure 3). […]

With “GKHKNKGKKNGKHNGWKWWW [GKH17WWW, GKH17 hydrophobically end-tagged with three W residues at the C-terminal]” the “Membrane-disruptive potency, ergosterol- versus cholesterol-containing liposomes” value [1] was “higher for ergosterol-containing liposomes than for cholesterol-containing ones”.

For `NCCCC[C@H](NC(=O)[C@H](Cc1c[nH]c2ccccc12)NC(=O)CNC(=O)[C@H](CC(N)=O)NC(=O)[C@H](Cc1c[nH]cn1)NC(=O)[C@H](CCCCN)NC(=O)CNC(=O)[C@H](CC(N)=O)NC(=O)[C@H](CCCCN)NC(=O)[C@H](CCCCN)NC(=O)CNC(=O)[C@H](CCCCN)NC(=O)[C@H](CC(N)=O)NC(=O)[C@H](CCCCN)NC(=O)[C@H](Cc1c[nH]cn1)NC(=O)[C@H](CCCCN)NC(=O)CN)C(=O)O` [GKH17] (H-GKHKNKGKKNGKHNGWK-OH), the “MIC (concentration yielding at least 95% inhibition of fungal growth)” value (M. furfur ATCC 44342) was 5 to 10 µM.

With GGHVLDHGHKHKHGHGHGKH [GGH20] the “Antifungal activity in RDA” value (C. albicans ATCC 90028) was “showed antifungal activity”.

With `NCCCC[C@H](NC(=O)CNC(=O)[C@H](CC(N)=O)NC(=O)[C@H](CCCCN)NC(=O)[C@H](CCCCN)NC(=O)CNC(=O)[C@H](CCCCN)NC(=O)[C@H](CC(N)=O)NC(=O)[C@H](CCCCN)NC(=O)[C@H](Cc1c[nH]cn1)NC(=O)[C@H](CCCCN)NC(=O)CNC(=O)[C@H](Cc1c[nH]cn1)NC(=O)CNC(=O)[C@H](Cc1c[nH]cn1)NC(=O)CNC(=O)[C@H](Cc1c[nH]cn1)NC(=O)[C@H](CCCCN)NC(=O)[C@@H](N)Cc1c[nH]cn1)C(=O)N[C@@H](Cc1c[nH]cn1)C(=O)O` [HKH20] (H-HKHGHGHGKHKNKGKKNGKH-OH; N-terminus and C-terminus assumed) the “Antifungal activity against M. furfur at fixed concentrations” value (M. furfur ATCC 44342; 10 μM or 30 μM, 24 h (Figure 2(e))) was “antifungal at 10 and 30 μM”, the “MIC (concentration yielding at least 95% inhibition of fungal growth)” value (M. furfur ATCC 44342) was 2.5 to 5 µM and the “Inhibitory activity in RDA compared with reference peptides” value [2] was “significantly higher inhibitory activity on Candida, when compared with LL-37”. The “Antifungal activity in RDA” value (C. albicans ATCC 90028) was “showed antifungal activity”, the “Inhibitory activity in RDA in comparison to LL-37” value (C. albicans ATCC 90028; low salt, P < 0.05 (Figure 2(c))) was “significantly more potent inhibitory activity on Candida, in comparison to LL-37” and the “Antifungal activity in viable count assay” value ([3]; 0.3 μM to 60 μM, 1 × 10^6 cfu/mL, 2 h at 28°C, 10 mM Tris pH 7.4 (Figure 2(a))) was “potent antifungal activity”. The “Candida cells killed (time-dependent killing)” value ([3]; ATCC 90018, 48 h, 30 μM, pH 7.4) was over 80%.
